From ChEMBL document CHEMBL3120109, “Discovery of Thienoimidazole-Based HCV NS5A Genotype 1a and 1b Inhibitors” (ACS Med Chem Lett, 2014)

Assays:
Hepatitis C virus [1] = assay: Antiviral activity against Hepatitis C virus genotype 1b infected in human Huh-5.2 cells assessed as decrease in HCV replicon RNA replication after 4 days by luciferase assay; assay type: functional, organism-based, Hepacivirus hominis; conditions: Huh-5-2, 96 h
[2] = Cytotoxicity against human HuhET cells by [3H]thymidine incorporation assay; assay type: cell-based
Hepatitis C virus [3] = assay: Antiviral activity against Hepatitis C virus genotype 1a infected in W11.8 cells assessed as decrease in NS5A expression in replicon cell after 4 days by luminescence based ELISA; assay type: functional, organism-based, Hepacivirus hominis; conditions: subtype 1a, W11.8, 96 h
[4] = Ratio of EC50 for Hepatitis C virus genotype 1a infected in W11.8 cells to EC50 for Hepatitis C virus genotype 1b infected in human Huh-5.2 cells; assay type: functional
[5] = AUC (0 to 8 hrs) in rat at 3 mg/kg, po; assay type: ADME, organism-based; set-up: time < 8 hr, dose 3 mg/kg, route oral; conditions: plasma
[6] = Half life in rat at 3 mg/kg, po; assay type: ADME, organism-based; set-up: dose 3 mg/kg, route oral; conditions: in vivo
[7] = Clearance in rat at 3 mg/kg, iv; assay type: ADME, organism-based; set-up: dose 3 mg/kg, route intravenous; conditions: in vivo
[8] = Half life in rat at 3 mg/kg, iv; assay type: ADME, organism-based; set-up: dose 3 mg/kg, route intravenous; conditions: in vivo
[9] = Oral bioavailability in rat at 3 mg/kg; assay type: ADME, organism-based; conditions: in vivo
[10] = Volume of distribution at steady state in rat at 3 mg/kg, iv; assay type: ADME, organism-based; set-up: dose 3 mg/kg, route intravenous; conditions: in vivo, read-out: Vdss
Hepatitis C virus [11] = assay: Ratio of EC50 for Hepatitis C virus genotype 1a harboring NS5A Y93H mutant gene to EC50 for Hepatitis C virus genotype 1a harboring wild type NS5A; assay type: functional, Hepacivirus hominis, subtype 1a
[12] = Metabolic stability in human liver microsomes assessed as intact compound level at 5 uM after 1 hr; assay type: ADME; conditions: read-out: Stability
[13] = Efflux ratio of permeability from basolateral to apical over apical to basolateral side in human Caco2 cells; assay type: ADME, cell-based; conditions: Caco-2
Hepatitis C virus [14] = assay: Ratio of EC50 for Hepatitis C virus genotype 1a harboring NS5A M28T mutant gene to EC50 for Hepatitis C virus genotype 1a harboring wild type NS5A; assay type: functional, Hepacivirus hominis, subtype 1a
Hepatitis C virus [15] = assay: Ratio of EC50 for Hepatitis C virus genotype 1a harboring NS5A Y93C mutant gene to EC50 for Hepatitis C virus genotype 1a harboring wild type NS5A; assay type: functional, Hepacivirus hominis, subtype 1a
Hepatitis C virus [16] = assay: Ratio of EC50 for Hepatitis C virus genotype 1b harboring NS5A Y93H mutant gene to EC50 for Hepatitis C virus genotype 1b harboring wild type NS5A; assay type: functional, Hepacivirus hominis
[17] = Metabolic stability in rat liver microsomes assessed as intact compound level at 5 uM after 1 hr; assay type: ADME; conditions: read-out: Stability
Hepatitis C virus [18] = assay: Ratio of EC50 for Hepatitis C virus genotype 1a harboring NS5A Q30R mutant gene to EC50 for Hepatitis C virus genotype 1a harboring wild type NS5A; assay type: functional, Hepacivirus hominis, subtype 1a

Compound	EC50 (Hepatitis C virus [1]) [nM]	EC50 (Hepatitis C virus [3]) [nM]	CC50 [2] [nM]	Ratio EC50 [4]	other results
COC(=O)N[C@H](C(=O)N1C[C@@H](C)C[C@H]1c1ncc(-c2csc3ccc(-c4ccc(-c5cc6[nH]c([C@@H]7C[C@H](C)CN7C(=O)[C@@H](NC(=O)OC)C(C)C)nc6s5)cc4)cc23)[nH]1)C(C)C	6.8	> 100	16400		
COC(=O)N[C@H](C(=O)N1CCC[C@H]1c1ncc(-c2ccc(-c3ccc(-c4cnc([C@@H]5CCCN5C(=O)[C@@H](NC(=O)OC)C(C)C)[nH]4)cc3)cc2)[nH]1)C(C)C [DACLATASVIR]		0.05			
COC(=O)N[C@H](C(=O)N1C[C@@H](C)C[C@H]1c1nc2cc(-c3ccc(-c4ccc(-c5cc6[nH]c([C@@H]7C[C@H](C)CN7C(=O)[C@@H](NC(=O)OC)C(C)C)nc6s5)cc4)cc3)ccc2[nH]1)C(C)C	0.024	0.622	> 20000		
COC(=O)N[C@H](C(=O)N1C[C@@H](C)C[C@H]1c1ncc(C#Cc2ccc(-c3ccc(-c4cc5[nH]c([C@@H]6C[C@H](C)CN6C(=O)[C@@H](NC(=O)OC)C(C)C)nc5s4)cc3)cc2)[nH]1)C(C)C	0.01	1.12	> 20000	112	
COC(=O)N[C@H](C(=O)N1C[C@@H](C)C[C@H]1c1ncc(-c2cc3sc(-c4ccc(-c5cc6[nH]c([C@@H]7C[C@H](C)CN7C(=O)[C@@H](NC(=O)OC)C(C)C)nc6s5)cc4)cc3s2)[nH]1)C(C)C	0.014	0.054	> 20000	3.8	AUC(0-t) at 8 h [5]: 460 ng·h/mL; half-life [6]: 10.8 h; clearance [7]: 5.1 mL/min/kg; half-life [8]: 5.1 h; bioavailability [9]: 6.7%; Vd [10]: 2 L/kg
COC(=O)N[C@H](C(=O)N1C[C@@H](C)C[C@H]1c1ncc(C#Cc2ccc(-c3cc4[nH]c([C@@H]5C[C@H](C)CN5C(=O)[C@@H](NC(=O)OC)C(C)C)nc4s3)cc2)[nH]1)C(C)C	0.24	12	> 20000	50	
COC(=O)N[C@H](C(=O)N1C[C@@H](C)C[C@H]1c1ncc(-c2ccc(-c3ccc(-c4cc5[nH]c([C@@H]6C[C@H](C)CN6C(=O)[C@@H](NC(=O)OC)C(C)C)nc5s4)cc3)s2)[nH]1)C(C)C	0.007	0.034	18300	5	
COC(=O)N[C@H](C(=O)N1C[C@@H](C)C[C@H]1c1ncc(-c2ccc(-c3ccc(-c4cc5[nH]c([C@@H]6C[C@H](C)CN6C(=O)[C@@H](NC(=O)OC)C(C)C)nc5s4)cc3)cc2)[nH]1)C(C)C	0.008	0.017	> 20000	2	AUC(0-t) at 8 h [5]: 1540 ng·h/mL; half-life [6]: 8.3 h; Ratio EC50 (Hepatitis C virus [11]): >15000; remaining at 1 h, 5 µM [12]: 100%; clearance [7]: 5.3 mL/min/kg; efflux ratio [13]: 2; Ratio EC50 (Hepatitis C virus [14]): >500; half-life [8]: 6.1 h; Ratio EC50 (Hepatitis C virus [15]): >15000; Ratio EC50 (Hepatitis C virus [16]): 900; remaining at 1 h, 5 µM [17]: 91%; bioavailability [9]: 25.6%; Ratio EC50 (Hepatitis C virus [18]): >500; Vd [10]: 2.4 L/kg
COC(=O)N[C@H](C(=O)N1C[C@@H](C)C[C@H]1c1ncc(-c2ccc(-c3ccc(-c4cc5[nH]c([C@@H]6C[C@H](C)CN6C(=O)[C@@H](NC(=O)OC)C(C)C)nc5s4)cc3)c(F)c2)[nH]1)C(C)C	0.013	0.235	3100	18	

More lines, in order of falling EC50 (Hepatitis C virus [1]), values ahead:

EC50 (Hepatitis C virus [1]) [nM]	EC50 (Hepatitis C virus [3]) [nM]	Compound	CC50 [2] [nM]	Ratio EC50 [4]	other results
0.007	7.5	COC(=O)N[C@H](C(=O)N1C[C@@H](C)C[C@H]1c1ncc(-c2cccc(-c3ccc(-c4cc5[nH]c([C@@H]6C[C@H](C)CN6C(=O)[C@@H](NC(=O)OC)C(C)C)nc5s4)cc3)c2)[nH]1)C(C)C	> 20000	1071	AUC(0-t) at 8 h [5]: 490 ng·h/mL; half-life [6]: 5.1 h; clearance [7]: 13.5 mL/min/kg; half-life [8]: 5.1 h; bioavailability [9]: 16%; Vd [10]: 4.8 L/kg
0.005	0.619	COC(=O)N[C@H](C(=O)N1C[C@@H](C)C[C@H]1c1nc2cc(-c3ccc(-c4cc5[nH]c([C@@H]6C[C@H](C)CN6C(=O)[C@@H](NC(=O)OC)C(C)C)nc5s4)cc3)ccc2[nH]1)C(C)C	> 20000		
0.005	0.114	COC(=O)N[C@H](C(=O)N1C[C@@H](C)C[C@H]1c1ncc(-c2ccc(-c3ccc(-c4cc5[nH]c([C@@H]6C[C@H](C)CN6C(=O)[C@@H](NC(=O)OC)C(C)C)nc5s4)cc3)cc2C)[nH]1)C(C)C	> 20000	23	
0.004	0.177	COC(=O)N[C@H](C(=O)N1C[C@@H](C)C[C@H]1c1nc2cc(C#Cc3ccc(-c4cc5[nH]c([C@@H]6C[C@H](C)CN6C(=O)[C@@H](NC(=O)OC)C(C)C)nc5s4)cc3)ccc2[nH]1)C(C)C	> 20000		
0.004	0.038	COC(=O)N[C@H](C(=O)N1C[C@@H](C)C[C@H]1c1nc2cc(/C=C/c3ccc(-c4cc5[nH]c([C@@H]6C[C@H](C)CN6C(=O)[C@@H](NC(=O)OC)C(C)C)nc5s4)cc3)ccc2[nH]1)C(C)C	> 20000		AUC(0-t) at 8 h [5]: 820 ng·h/mL; half-life [6]: 5 h; clearance [7]: 6 mL/min/kg; half-life [8]: 6.6 h; bioavailability [9]: 14.1%; Vd [10]: 2.7 L/kg
0.003	0.071	COC(=O)N[C@H](C(=O)N1C[C@@H](C)C[C@H]1c1ncc(-c2ccc(-c3ccc(-c4cc5[nH]c([C@@H]6C[C@H](C)CN6C(=O)[C@@H](NC(=O)OC)C(C)C)nc5s4)cc3)cc2F)[nH]1)C(C)C	> 20000		
0.002	0.062	COC(=O)N[C@H](C(=O)N1C[C@@H](C)C[C@H]1c1ncc(-c2ccc(-c3ccc(-c4cc5[nH]c([C@@H]6C[C@H](C)CN6C(=O)[C@@H](NC(=O)OC)C(C)C)nc5s4)cc3)c(C)c2)[nH]1)C(C)C	> 20000	31	
